Test results reported in patent publication US20250353819A1, “ARYL HYDANTOIN COMPOUNDS AND METHODS OF USE” (priority 2022, published 2025).
Values joined by “and” are separate entries in the source; they are usually repeats but may differ in a detail not shown here. Equal values may be shown once. Read-outs that look alike come from different tables or passages of the source.

Key:
[1] = system: S. mansoni; experiment: Antischistosomal screen in S. mansoni-infected mice; assay type: in vivo, Schistosoma mansoni; conditions: Schistosoma mansoni, single oral dose, mouse model
Description: Antischistosomal Screen. […] As described by Lombardo et al. (2019), cercariae of S. mansoni were obtained from infected Biomphalaria glabrata. By way of example, NMRI mice were infected subcutaneously with approximately 100 S. mansoni cercariae. […] Untreated mice (n=8) served as controls. At 21 d post-treatment, animals were killed by the CO2 method and dissected. Worms were removed by picking, then sexed and counted.

[2] = Kinetic solubility (nephelometry); assay type: physicochemical; conditions: aqueous buffer, kinetic from dmso stock; kinetic solubility, pH 6.5 phosphate buffer; read-out: Sol6.5
Protocol: Kinetic Solubility. Compounds in DMSO (10 mg/mL) were diluted into either pH 6.5 phosphate buffer or 0.01 M HCl (approx. pH 2.0) with the final DMSO concentration being 1%. Samples were then analysed via nephelometry to determine a solubility range (Bevan and Lloyd, 2000).

[3] = In vitro metabolic stability, mouse liver microsomes; assay type: in vitro ADME; conditions: mouse liver microsomes; read-out: m CLint
Protocol: (§1) In Vitro Metabolic Stability. As described by Charman et al. (2020), metabolic stability assays were performed by incubating test compounds in liver microsomes at 37° C. and 0.4 mg/mL protein concentration. The metabolic reaction was initiated by the addition of an NADPH-regenerating system and quenched at various time points over a 60 min incubation period by the addition of acetonitrile containing diazepam as internal standard. Control samples (containing no NADPH) were included (and quenched at 2, 30 and 60 min) to monitor for potential degradation in the absence of cofactor.

[4] = Stability in rat cryopreserved hepatocytes; assay type: in vitro ADME; conditions: for CLint: Rat cryopreserved hepatocytes
[5] = Plasma protein binding (rapid equilibrium dialysis), human plasma; assay type: in vitro ADME; conditions: for fraction unbound: human, plasma, read-out: % bound (converted)
[6] = Plasma protein binding, dog plasma; assay type: in vitro ADME; conditions: read-out: % bound (converted)
[7] = Plasma protein binding, rat plasma; assay type: in vitro ADME; conditions: read-out: % bound (converted)
[8] = Plasma protein binding, mouse plasma; assay type: in vitro ADME; conditions: for fraction unbound: mouse, plasma, read-out: % bound (converted)
[9] = Whole blood-to-plasma ratio, rat; assay type: in vitro ADME
Protocol: As part of the assessment of the IV pharmacokinetics, an additional blood sample was collected from each rat at 1 h post dose for the purposes of determining the whole blood-to-plasma (B/P) ratio. Arterial blood was collected into tubes containing heparin. The haematocrit was determined via centrifugation (13000×g for 4 min using a Clemets® Microhematocrit centrifuge and Safecap® Plain Self-sealing Mylar Wrapped capillary tubes), and values ranged from 41% to 42%. Each blood aliquot ([…]) was collected and matrix matched with an equivalent volume of blank plasma. The remainder of the blood sample was centrifuged and […] plasma aliquot was collected and matrix matched with an equivalent volume of blank blood. Samples were frozen on dry ice and stored at −80° C. until analysis by LC-MS.

[10] = Whole blood-to-plasma ratio, mouse
[11] = molecular target: CYP 2C9 (Homo sapiens (Human), UniProt P11712); experiment: CYP inhibition in human liver microsomes, 2C9
Chain of CYP 2C9 (P11712 whole entry): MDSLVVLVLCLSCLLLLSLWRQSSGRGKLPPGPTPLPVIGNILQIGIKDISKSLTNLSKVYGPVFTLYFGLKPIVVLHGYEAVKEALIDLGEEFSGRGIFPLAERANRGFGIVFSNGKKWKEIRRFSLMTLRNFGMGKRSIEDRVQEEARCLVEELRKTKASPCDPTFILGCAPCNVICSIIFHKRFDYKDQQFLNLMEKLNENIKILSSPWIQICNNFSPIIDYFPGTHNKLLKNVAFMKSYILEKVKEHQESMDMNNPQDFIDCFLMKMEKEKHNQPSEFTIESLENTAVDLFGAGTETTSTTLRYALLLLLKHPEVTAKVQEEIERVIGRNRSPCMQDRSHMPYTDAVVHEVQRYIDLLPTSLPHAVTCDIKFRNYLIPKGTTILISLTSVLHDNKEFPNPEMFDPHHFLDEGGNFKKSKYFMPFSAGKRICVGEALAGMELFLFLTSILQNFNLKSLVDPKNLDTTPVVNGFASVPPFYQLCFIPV

[12] = molecular target: CYP 3A4 (Homo sapiens (Human), UniProt P08684); experiment: CYP inhibition in human liver microsomes, 3A4
Chain of CYP 3A4 (P08684 whole entry): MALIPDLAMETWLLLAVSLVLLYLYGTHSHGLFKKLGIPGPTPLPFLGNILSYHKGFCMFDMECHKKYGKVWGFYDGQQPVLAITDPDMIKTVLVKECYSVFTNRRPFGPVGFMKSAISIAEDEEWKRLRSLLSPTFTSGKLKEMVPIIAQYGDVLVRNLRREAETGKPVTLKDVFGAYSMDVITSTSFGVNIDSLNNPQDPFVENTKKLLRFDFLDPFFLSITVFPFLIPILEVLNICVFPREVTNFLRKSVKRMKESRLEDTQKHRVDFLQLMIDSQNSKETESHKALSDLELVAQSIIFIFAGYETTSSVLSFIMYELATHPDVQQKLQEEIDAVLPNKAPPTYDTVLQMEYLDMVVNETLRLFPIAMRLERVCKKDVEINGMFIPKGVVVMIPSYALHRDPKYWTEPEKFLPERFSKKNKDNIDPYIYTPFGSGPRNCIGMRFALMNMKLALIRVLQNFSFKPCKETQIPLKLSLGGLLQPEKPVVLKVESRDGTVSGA

[13] = system: androgen-receptor; experiment: DHT-induced (KLK3, FKBP5) and DHT-repressed (ZFP36L1) transcripts in LAPC4 cells; assay type: cell-based; conditions: Compound IE up to 10 μM
[14] = system: adult S. mansoni; experiment: ex vivo exposure of adult S. mansoni; parameters: species or system Schistosoma mansoni; conditions: S. mansoni worms exposed ex vivo
Description: Without wishing to be bound to any particular theory, it is believed that the activity of the disclosed compounds is mediated at least in part by a host effect.

[15] = system: S. haematobium; experiment: S. haematobium infections in hamsters; assay type: in vivo; conditions: single 50 mg/kg oral dose
[16] = system: S. japonicum; experiment: S. japonicum infections in hamsters; assay type: in vivo
[17] = system: S. japonicum; experiment: S. japonicum infections in mice; assay type: in vivo
[18] = In vitro metabolic stability, rat microsomes; assay type: in vitro ADME; conditions: liver microsomes
Protocol: as §1

[19] = Photostability; assay type: physicochemical; conditions: 500 μg/mL in 50% aq. MeOH, simulated confirmatory and forced degradation sunlight conditions
Protocol: MeOH also was evaluated under simulated confirmatory and forced degradation sunlight conditions.

[20] = Whole blood to plasma partitioning, human; assay type: in vitro ADME
[21] = Binding to HLM; conditions: human liver microsomes
[22] = adult stage, read-out: S. mansoni ED50, adult
[23] = juvenile stage, read-out: S. mansoni ED50, juvenile

CC1(C)NC(=O)N(c2ccc(F)c(C(C)(F)F)c2)C1=O [Compound IC, 3-(3-(1,1-difluoroethyl)-4-fluorophenyl)-5,5-dimethylimidazolidine-2,4-dione]
ED50 [1, 22]: 20 mg/kg
ED50 [1, 23]: 23 mg/kg
solubility kinetic [2]: > 100 µg/mL
microsomal CLint [3]: < 7 µL/min/mg
CLint [4]: <1 μL/min/10^6
fraction unbound [5]: 0.34
fraction unbound [6]: 0.36
fraction unbound [7]: 0.38
fraction unbound [8]: 0.38
B:P [9]: 1.2
B:P [10]: 0.95
IC50 [11]: > 20 µM
IC50 [12]: > 20 µM

[2H]C([2H])([2H])C1(C([2H])([2H])[2H])NC(=O)N(c2ccc(F)c(C(C)(F)F)c2)C1=O [Compound IE, 3-(3-(1,1-difluoroethyl)-4-fluorophenyl)-5,5-bis(methyl-d3)imidazolidine-2,4-dione]
levels of DHT-induced (KLK3, FKBP5) and DHT-repressed (ZFP36L1) transcripts [13]: no effect
ED50 [1, 22]: 7.1 mg/kg
ED50 [1, 23]: 16 mg/kg
changes via transcriptomic and ultraresolution microscopy [14]: no significant changes
clearance of S. haematobium infections [15]: completely cleared
ED50 ([16]; Schistosoma japonicum, oral): 8.5 mg/kg
clearance of S. japonicum infections ([16]; single 25 mg/kg oral dose): completely cleared
ED50 ([17]; Schistosoma japonicum, oral): 6.7 mg/kg
clearance of S. japonicum infections ([17]; single 25 mg/kg oral dose): completely cleared
microsomal CLint [3]: < 7 µL/min/mg
microsomal CLint [18]: < 7 µL/min/mg
loss of parent compound (photostability) [19]: < 3%
CLint [4]: <2 μL/min/10^6
hepatocyte CLint ([4]; rat cryopreserved hepatocytes, read-out: in vitro CLint): < 2000 µL/min/1e6 cells
% bound [5]: 63%
fraction unbound [5]: 0.367
fraction unbound [6]: 0.32
fraction unbound [7]: 0.42
% bound [8]: 54%
fraction unbound [8]: 0.462
B:P [20]: 0.78±0.035 and 0.78
B:P [9]: 1.0
fraction unbound [21]: 1
B:P [10]: 1.0
CYP inhibition ([11]; CYP 2C9, concentrations up to 20 μM, human liver microsomes): did not inhibit
IC50 ([11]; read-out: CYP inhibition IC50, 2C9): > 20 µM
CYP inhibition ([12]; CYP 3A4, concentrations up to 20 μM, human liver microsomes): did not inhibit
IC50 ([12]; read-out: CYP inhibition IC50, 3A4* (tes/mid)): > 20 µM
